From patent US11395492B2, “Antimicrobial and agrochemical compositions” (Myco Sciences Limited, priority 2015, dated 2022)
Like-named read-outs stand apart in the source and are kept apart here.

Tests used:
Rhizoctonia solani [1] = system: Rhizoctonia solani
Description: To assess the effects of composition on fungal growth, 10 microliters of the test compositions diluted in sterile distilled water were placed in the wells of a 12-well tissue culture plate and 1 milliliter of PDA was added by pipette to each well. The plate was agitated to distribute the test composition evenly throughout the agar (distilled water alone was used as control) and then the agar was allowed to set. Plugs of agar containing fungal hyphae (3×3 millimeters) from an established fungal culture were cut out using a scalpel and inserted into holes cut into the centre of the agar in each well of the 12-well plate, which was then cultured at room temperature (22° C.). To assess the effects of compositions on radial fungal growth, the diameter the fungal hyphae was measured twice at a 90° angle using a ruler and the average diameter in millimeters was calculated. If no fungal growth could be detected by eye, the cultures were observed by phase microscopy (40×) to confirm that there was no growth (NG) as judged by visual examination.
To assess the effects of compounds and compositions on sclerotia formation, the R. solani cultures were examined daily and radial fungal growth was measured until the cultures were confluent after which time the development of white (immature) sclerotia and mature (black pigmented) sclerotia was noted and the number of mature sclerotia was counted on day 10 of culture.

Rhizoctonia solani [2] = assay: Inhibition of fungal growth assay (radial growth on PDA); details: for IC50 (% of stock solution) on growth of R. solani: potato dextrose agar, 24 hour culture at 22° C.
Description: Inhibition of fungal growth assay. The Rhizoctonia solani (R. solani) strain was isolated from sclerotia on the skin of a potato and was maintained in culture on potato dextrose agar (PDA) at room temperature (22° C.). To assess the effects of the compositions on fungal growth, 10 microliters of the test compositions diluted in sterile distilled water was placed in the wells of a 12-well tissue culture plate and 1 milliliter of PDA was added by pipette to each well. The plate was agitated to distribute the test composition evenly throughout the agar (distilled water alone was used as control) and then the agar was allowed to set. Plugs of agar containing fungal hyphae (3×3 millimeters) from an established fungal culture were cut out using a scalpel and inserted into holes cut into the centre of the agar in each well of the 12-well plate, which was then cultured at room temperature. To assess the effects of compositions on radial fungal growth, the diameter of the fungal hyphae was measured twice at a 90° angle using a ruler and the average diameter in millimeters was calculated. Concentrations of compositions required to inhibit the radial growth of R. solani by 50% (IC50) were determined graphically.

spores of B. cinerea = assay: Sporicidal assay (1) with sodium nitrite, B. cinerea; type: cell-based, Botrytis cinerea; details: 30 min
[3] = pH of diluted compositions and components; type: physicochemical
spores of F. oxysporum = assay: Sporicidal assay (1) with sodium nitrite, F. oxysporum; type: cell-based, Fusarium oxysporum f. sp. cubense; details: 30 min
Magnaporthe oryzae = type: cell-based; details: for M. oryzae fungal growth (mm): 30 min exposure, 4 days culture
[4] = FIG. 3, 2 to 3 replicate experiments

## O=[PH]([O-])O.[K+] [Potassium phosphite, potassium phosphite]
Rhizoctonia solani [1]; 10 mg/L (Table 9)
  Day 1 growth in mm: 19 mm
  Day black SCL 1st seen: 5
  Day growth confluent: 2
  Day white SCL 1st seen: 3
  No. black SCL on day 10: 9
Rhizoctonia solani [1]; 20 mg/L (Table 9)
  Day 1 growth in mm: 19 mm
  Day black SCL 1st seen: 7
  Day growth confluent: 2
  Day white SCL 1st seen: 4
  No. black SCL on day 10: 2
Rhizoctonia solani [1]; 40 mg/L (Table 9)
  Day 1 growth in mm: 19 mm
  Day growth confluent: 2
  No. black SCL on day 10: 0
Rhizoctonia solani [1]; 80 mg/L (Table 9)
  Day 1 growth in mm: 18 mm
  Day growth confluent: 2
  No. black SCL on day 10: 0
Rhizoctonia solani [1]; 160 mg/L (Table 9)
  Day 1 growth in mm: 15 mm
  Day growth confluent: 3
  No. black SCL on day 10: 0
Rhizoctonia solani [2]
  IC50 values with R. solani (fungal growth): ~400 µg/mL

## NCP(=O)(O)O [AMPA, aminomethyl phosphonic acid]
Rhizoctonia solani [1]; 0.1 g/L (Table 11)
  Day 1 growth in mm: 20 mm
  Day black SCL 1st seen: 5
  Day growth confluent: 2
  Day white SCL 1st seen: 3
  No. black SCL on day 10: >20
Rhizoctonia solani [1]; 0.3 g/L (Table 11)
  Day 1 growth in mm: 19 mm
  Day black SCL 1st seen: 8
  Day growth confluent: 2
  Day white SCL 1st seen: 3
  No. black SCL on day 10: >20
Rhizoctonia solani [1]; 1 g/L (Table 11)
  Day 1 growth in mm: 17 mm
  Day black SCL 1st seen: 9
  Day growth confluent: 2
  Day white SCL 1st seen: 5
  No. black SCL on day 10: 5

## O=S(=O)([O-])[O-].[Zn+2] [ZnSO4, zinc sulfate]
Spores of B. cinerea; NaNO2 0 mM, test item 1%
  Fungal growth score, spores of B. cinerea: 2
Spores of B. cinerea; NaNO2 1 mM, test item 1%
  Fungal growth score, spores of B. cinerea: 2
Spores of B. cinerea; NaNO2 3 mM, test item 1%
  Fungal growth score, spores of B. cinerea: 2
Spores of B. cinerea; NaNO2 10 mM, test item 1%
  Fungal growth score, spores of B. cinerea: 2
Spores of B. cinerea; NaNO2 30 mM, test item 1%
  Fungal growth score, spores of B. cinerea: 2
Spores of B. cinerea; NaNO2 100 mM, test item 1%
  Fungal growth score, spores of B. cinerea: 1
Rhizoctonia solani [2]
  IC50 (% of stock solution) on growth of R. solani: 0.33 % of stock solution

## OP(O)O [Composition H3PO3, phosphorous acid]
Rhizoctonia solani [1]; 10 mg/L (Table 9)
  Day 1 growth in mm: 18 mm
  Day black SCL 1st seen: 5
  Day growth confluent: 2
  Day white SCL 1st seen: 3
  No. black SCL on day 10: 17
Rhizoctonia solani [1]; 12 mg/L (Table 11)
  Day 1 growth in mm: 20 mm
  Day black SCL 1st seen: 6
  Day growth confluent: 2
  Day white SCL 1st seen: 3
  No. black SCL on day 10: >20
Rhizoctonia solani [1]; 12 mg/L, adjusted to equal amounts of PO3 group (Table 10)
  Day 1 growth in mm: 18 mm
Rhizoctonia solani [1]; 12 mg/L, equal PO3 (Table 10)
  Day black SCL 1st seen: 6
  Day growth confluent: 2
  Day white SCL 1st seen: 3
  No. black SCL on day 10: >20
Rhizoctonia solani [1]; 20 mg/L (Table 9)
  Day 1 growth in mm: 18 mm
  Day growth confluent: 2
  Day white SCL 1st seen: 4
  No. black SCL on day 10: 0
Rhizoctonia solani [1]; 40 mg/L (Table 9)
  Day 1 growth in mm: 16 mm
  Day growth confluent: 2
  No. black SCL on day 10: 0
Rhizoctonia solani [1]; 40 mg/L (Table 11)
  Day 1 growth in mm: 19 mm
  Day growth confluent: 2
  No. black SCL on day 10: 0
Rhizoctonia solani [1]; 40 mg/L, adjusted to equal amounts of PO3 group (Table 10)
  Day 1 growth in mm: 16 mm
Rhizoctonia solani [1]; 40 mg/L, equal PO3 (Table 10)
  Day growth confluent: 2
  No. black SCL on day 10: 0
Rhizoctonia solani [1]; 80 mg/L (Table 9)
  Day 1 growth in mm: 14 mm
  Day growth confluent: 3
  No. black SCL on day 10: 0
Rhizoctonia solani [1]; 120 mg/L (Table 11)
  Day 1 growth in mm: 14 mm
  Day growth confluent: 3
  No. black SCL on day 10: 0
Rhizoctonia solani [1]; 120 mg/L, adjusted to equal amounts of PO3 group (Table 10)
  Day 1 growth in mm: 10 mm
Rhizoctonia solani [1]; 120 mg/L, equal PO3 (Table 10)
  Day growth confluent: 4
  No. black SCL on day 10: 0
Rhizoctonia solani [1]; 160 mg/L (Table 9)
  Day 1 growth in mm: 11 mm
  Day growth confluent: 3
  No. black SCL on day 10: 0
Rhizoctonia solani [1]; 400 mg/L (Table 11)
  Day 1 growth in mm: 6 mm
  No. black SCL on day 10: 0
Rhizoctonia solani [1]; 400 mg/L, adjusted to equal amounts of PO3 group (Table 10)
  Day 1 growth in mm: 5 mm
Rhizoctonia solani [1]; 400 mg/L, equal PO3 (Table 10)
  No. black SCL on day 10: 0
Rhizoctonia solani [1]; [4]
  times more active than AMPA at inhibiting black sclerotia formation: around 30 times
  times more active than glyphosate at inhibiting black sclerotia formation: around 20 times
Spores of B. cinerea; NaNO2 0 mM, test item 0.1%
  Fungal growth score, spores of B. cinerea: 2
Spores of B. cinerea; NaNO2 0 mM, test item 0.3%
  Fungal growth score, spores of B. cinerea: 2
Spores of B. cinerea; NaNO2 0 mM, test item 1%
  Fungal growth score, spores of B. cinerea: 2
Spores of B. cinerea; NaNO2 1 mM, test item 0.1%
  Fungal growth score, spores of B. cinerea: 2
Spores of B. cinerea; NaNO2 1 mM, test item 0.3%
  Fungal growth score, spores of B. cinerea: 2
Spores of B. cinerea; NaNO2 1 mM, test item 1%
  Fungal growth score, spores of B. cinerea: 2
Spores of B. cinerea; NaNO2 3 mM, test item 0.1%
  Fungal growth score, spores of B. cinerea: 2
Spores of B. cinerea; NaNO2 3 mM, test item 0.3%
  Fungal growth score, spores of B. cinerea: 2
Spores of B. cinerea; NaNO2 3 mM, test item 1%
  Fungal growth score, spores of B. cinerea: 1
Spores of B. cinerea; NaNO2 10 mM, test item 0.1%
  Fungal growth score, spores of B. cinerea: 2
Spores of B. cinerea; NaNO2 10 mM, test item 0.3%
  Fungal growth score, spores of B. cinerea: 2
Spores of B. cinerea; NaNO2 10 mM, test item 1%
  Fungal growth score, spores of B. cinerea: 0
Spores of B. cinerea; NaNO2 30 mM, test item 0.1%
  Fungal growth score, spores of B. cinerea: 2
Spores of B. cinerea; NaNO2 30 mM, test item 0.3%
  Fungal growth score, spores of B. cinerea: 2
Spores of B. cinerea; NaNO2 30 mM, test item 1%
  Fungal growth score, spores of B. cinerea: 0
Spores of B. cinerea; NaNO2 100 mM, test item 0.1%
  Fungal growth score, spores of B. cinerea: 2
Spores of B. cinerea; NaNO2 100 mM, test item 0.3%
  Fungal growth score, spores of B. cinerea: 1
Spores of B. cinerea; NaNO2 100 mM, test item 1%
  Fungal growth score, spores of B. cinerea: 0
[3]; 1% in distilled water
  pH of a 1% solution in DW: 2.12
[3]; 1% in distilled water with 100 mM sodium nitrite
  pH: 1% in DW + 100 mM NaNO2: 4.22
Spores of F. oxysporum; NaNO2 0 mM, test item 0.3%
  Fungal growth score, spores of F. oxysporum: 2
Spores of F. oxysporum; NaNO2 1 mM, test item 0.03%
  Fungal growth score, spores of F. oxysporum: 2
Spores of F. oxysporum; NaNO2 1 mM, test item 0.1%
  Fungal growth score, spores of F. oxysporum: 2
Spores of F. oxysporum; NaNO2 1 mM, test item 0.3%
  Fungal growth score, spores of F. oxysporum: 2
Spores of F. oxysporum; NaNO2 3 mM, test item 0.03%
  Fungal growth score, spores of F. oxysporum: 2
Spores of F. oxysporum; NaNO2 3 mM, test item 0.1%
  Fungal growth score, spores of F. oxysporum: 2
Spores of F. oxysporum; NaNO2 3 mM, test item 0.3%
  Fungal growth score, spores of F. oxysporum: 1
Spores of F. oxysporum; NaNO2 10 mM, test item 0.03%
  Fungal growth score, spores of F. oxysporum: 2
Spores of F. oxysporum; NaNO2 10 mM, test item 0.1%
  Fungal growth score, spores of F. oxysporum: 2
Spores of F. oxysporum; NaNO2 10 mM, test item 0.3%
  Fungal growth score, spores of F. oxysporum: 0
Spores of F. oxysporum; NaNO2 30 mM, test item 0.03%
  Fungal growth score, spores of F. oxysporum: 2
Spores of F. oxysporum; NaNO2 30 mM, test item 0.1%
  Fungal growth score, spores of F. oxysporum: 1
Spores of F. oxysporum; NaNO2 30 mM, test item 0.3%
  Fungal growth score, spores of F. oxysporum: 0
Rhizoctonia solani [2]
  IC50 values with R. solani (fungal growth): around 250 mg/L
  IC50 (% of stock solution) on growth of R. solani: 0.64^+ % of stock solution
Rhizoctonia solani [2]; listed as phosphorous acid
  IC50 (% of stock solution) on growth of R. solani: 0.64 % of stock solution
Magnaporthe oryzae; NaNO2 0 mM, composition 1%
  M. oryzae fungal growth (mm): 21 mm
Magnaporthe oryzae; NaNO2 10 mM, composition 0.1%
  M. oryzae fungal growth (mm): 20 mm
Magnaporthe oryzae; NaNO2 10 mM, composition 0.3%
  percent of control (A, B, M) used to calculate Sf: 38%
  M. oryzae fungal growth (mm): 13 mm
Magnaporthe oryzae; NaNO2 10 mM, composition 1%
  percent of control (A, B, M) used to calculate Sf: 48%
  M. oryzae fungal growth (mm): 11 mm
Magnaporthe oryzae; absence of sodium nitrite, 1% of stock solution
  fungicidal activity to M. oryzae: not fungicidal

## O.O.O.O.O.O=S(=O)([O-])[O-].[Cu+2] [CuSO4, copper sulfate pentahydrate]
Spores of B. cinerea; NaNO2 0 mM, test item 1%
  Fungal growth score, spores of B. cinerea: 2
Spores of B. cinerea; NaNO2 1 mM, test item 1%
  Fungal growth score, spores of B. cinerea: 2
Spores of B. cinerea; NaNO2 3 mM, test item 1%
  Fungal growth score, spores of B. cinerea: 2
Spores of B. cinerea; NaNO2 10 mM, test item 1%
  Fungal growth score, spores of B. cinerea: 2
Spores of B. cinerea; NaNO2 30 mM, test item 1%
  Fungal growth score, spores of B. cinerea: 2
Spores of B. cinerea; NaNO2 100 mM, test item 1%
  Fungal growth score, spores of B. cinerea: 0
Spores of F. oxysporum; NaNO2 0 mM, test item 1%
  Fungal growth score, spores of F. oxysporum: 2
Spores of F. oxysporum; NaNO2 1 mM, test item 1%
  Fungal growth score, spores of F. oxysporum: 2
Spores of F. oxysporum; NaNO2 3 mM, test item 1%
  Fungal growth score, spores of F. oxysporum: 2
Spores of F. oxysporum; NaNO2 10 mM, test item 1%
  Fungal growth score, spores of F. oxysporum: 2
Spores of F. oxysporum; NaNO2 30 mM, test item 1%
  Fungal growth score, spores of F. oxysporum: 2
Rhizoctonia solani [2]
  IC50 (% of stock solution) on growth of R. solani: 0.39 % of stock solution

## [Cl-].[Cu+2].[Cu+2].[OH-].[OH-].[OH-] [CuOCl-TP, copper oxychloride]
[3]; 1% suspension in water
  pH of a 1% suspension in water: 6.2
Rhizoctonia solani [2]
  IC50 (% of stock solution) on growth of R. solani: 1.8 % of stock solution

## O=C(O)CNCP(=O)(O)O [Glyphosate, 2-[(phosphonomethyl)amino] acetic acid]
Rhizoctonia solani [1]; 0.27 g/L (Table 11)
  Day 1 growth in mm: 20 mm
  Day black SCL 1st seen: 5
  Day growth confluent: 2
  Day white SCL 1st seen: 3
  No. black SCL on day 10: >20
Rhizoctonia solani [1]; 0.8 g/L (Table 11)
  Day 1 growth in mm: 14 mm
  Day black SCL 1st seen: 6
  Day growth confluent: 2
  Day white SCL 1st seen: 3
  No. black SCL on day 10: 8
Rhizoctonia solani [1]; 2.7 g/L (Table 11)
  Day 1 growth in mm: 8 mm
  Day black SCL 1st seen: 8
  Day growth confluent: 6
  Day white SCL 1st seen: 6
  No. black SCL on day 10: 4
Rhizoctonia solani [1]; 8 g/L (Table 11)
  Day 1 growth in mm: 6 mm
  No. black SCL on day 10: 0
